Read-outs that look alike come from different tables or passages of the source.
Columns and labels:
[1] = cited from earlier work
[2] = Molar extinction coefficient by UV absorbance at 340 nm; assay type: physicochemical; conditions: 50 mM phosphate buffer at pH 7.0, absorbance at 340 nm; in M-1 cm-1 (unit assumed)
Description: S. coelicolor A(3)2 pTMAO-G3 was cultured as described above at larger scales and 225 mL of S. coelicolor pTMAO-G3 culture broth was dried to ˜20 mL and passed through a C18 solid phase extraction (SPE) column. Gadusol and gadusporines were mostly un-retained, however, washing with water for 1-2 column volumes (CVs) eluted the remaining compounds. The eluent was combined and dried to ˜20 mL, which was applied directly to a 300 mL Bio-Rad AG®-1×8 (acetate form) column. After washing with 2 L of water, 500 mM acetic acid was used to elute gadusol and gadusporines. All fractions containing both gadusol and gadusporines were combined and fractions lacking gadusol but containing gadusporines were combined separately and dried. The gadusol-free fraction was further purified using the preparative HPLC as described previously to give gadusporine A (9.0 mg) (see FIG. 5A) as two different isomers. All NMR experiments were performed on a 700 MHz Bruker NMR Spectrometer with a cryo probe at the Oregon State University (OSU) NMR facility. The molar extinction coefficient of gadusporine A was determined by dissolving 0.6 mg in 50 mM phosphate buffer at pH 7.0 in a 25 mL volumetric flask then measuring UV absorbance at 340 nm.

[3] = UV absorbance maximum (λmax); assay type: physicochemical; conditions: for UV maximum: under acidic conditions, HPLC of culture broth
Description: Gadusporine A (see FIG. 5A), a yellow-brown solid, UV (50 mM phosphate buffer pH 7) λmax 340 nm, (50 mM acetic acid pH 3) λmax 338 nm. ^1H NMR (700 MHz, D2O) and ^13C NMR (175 MHz, D2O) see Table 3. HR-ESIMS m/z 349.1239 [M+H]^+ (calculated for C13H20N2O9, 349.1247).
Gadusporine A was produced at 20 mg/L. Gadusol was produced by pTMAO-G1 at of 29 mg/L.
Shinorine has been reported to have λmax=330 nm at pH 1.7 and λmax=334 nm at pH 7. […] Gadusporine A has a molar extinction coefficient ε=49,400, as measured in 50 mM phosphate buffer at pH 7.0, which is slightly higher than shinorine (ε=44,000), thus stronger UV absorbance activity.

[4] = background statement; cited from earlier work
Solubility in methanol = assay type: physicochemical
[5] = comparison value for shinorine; cited from earlier work

## C/C=C/NC1=C(OC)C(=NCC(=O)O)CC(O)(CO)C1 (centres unmarked) [palythene]
[1]; background, no pH given
  λmax: 360 nm

## COC1=C(NCC(=O)O)C[C@@](O)(CO)[C@@H](O)/C1=N\[C@@H](CO)C(=O)O [gadusporine A, (S)-2-(((5R,6S,E)-3-((carboxymethyl)amino)-5,6-dihydroxy-5-(hydroxymethyl)-2-methoxycyclohex-2-en-1-ylidene)amino)-3-hydroxypropanoic acid]
[2]
  molar extinction coefficient ε: 49,400
[3]; 50 mM acetic acid pH 3
  UV λmax: 338 nm
[3]; 50 mM phosphate buffer pH 7
  UV λmax: 340 nm
[3]; pH 2.0
  λmax: 338 nm
[3]; pH 7.0
  λmax: 340 nm
[3]
  UV maximum: 338 nm

## COC1=C(O)CC(O)(CO)C(O)C1=O (centres unmarked) [Gadusol, gadusol]
[1]; pH 2.5
  UV absorbance maxima: 268 nm
[1]; pH 7.0
  UV absorbance maxima: 296 nm
[4]
  antioxidant activity: antioxidant activity

## C/C=C\NC1=C(OC)C(=NCC(=O)O)CC(O)(CO)C1 (centres unmarked) [usujirene]
[1]; background, no pH given
  λmax: 357 nm

## COC1=C(NCC(=O)O)C[C@@](O)(CO)[C@@H](O)/C1=N\[C@@H](C)C(=O)O [gadusporine B, (S)-2-(((5R,6S,E)-3-((carboxymethyl)amino)-5,6-dihydroxy-5-(hydroxymethyl)-2-methoxycyclohex-2-en-1-ylidene)amino)propanoic acid]
[3]; 50 mM acetic acid pH 3
  UV λmax: 338 nm
[3]; 50 mM phosphate buffer pH 7
  UV λmax: 340 nm
[3]
  UV maximum: 338 nm
Solubility in methanol
  solubility in methanol: not very soluble in methanol

## prasiolin
[1]; background, no pH given
  λmax: 324 nm

## COC1=C(NCC(=O)O)C[C@@](O)(CO)C/C1=N\[C@@H](CO)C(=O)O [Shinorine, shinorine]
[1]; pH 1.7, reported
  λmax: 330 nm
[1]; pH 7, reported
  λmax: 334 nm
[5]
  molar extinction coefficient ε: 44,000
Solubility in methanol
  solubility in methanol: readily dissolved in methanol

Source: US11739337B2, “Gadusol derivative production in bacteria” (Oregon State University, priority 2019, dated 2023)
